Measurements reported in patent US20050288307A1, “Anti-viral compounds” (priority 2002, published 2005).
Read-outs that look alike come from different tables or passages of the source.

Key:
[1] = biological target: CDK7/cyclin H (Homo sapiens, UniProt P50613); test: CDK7 assay (CTD peptide substrate); assay type: biochemical; settings: read-out: Average IC50 CDK7 cyclin H
Experimental: CTD peptide substrate (biotinyl-Ahx-(Tyr-Ser-Pro-Thr-Ser-Pro-Ser)4-NH2; 1-2 mg/mL) and recombinant human CDK7/cyclin H, CDK9/cyclin T1, or CDK9/cyclin K (0.5-2 μg) were incubated for 45 min at 30° C. in the presence of varying amounts of test compound in 20 mM MOPS pH 7.2, 25 mM β-glycerophosphate, 5 mM EGTA, 1 mM DTT, 1 mM sodium vanadate, 15 mM MgCl2, and 100 μM ATP (containing a trace amount of ^32PγATP) in a total volume of 25 μL in a 96-well microtiter plate. The reaction was stopped by placing the plate on ice for 2 min. Avidin (50 μg) was added to each well, and the plate was incubated at room temp for 30 min. The samples were transferred to a 96-well P81 filter plate, and washed (4×200 μL per well) with 75 mM phosphoric acid. Microscint 40 scintillation liquid (50 μL) was added to each well, and the amount of ^32P incorporation for each sample was measured using a Packard Topcount microplate scintillation counter.

[2] = biological target: Akt/PKB (Homo sapiens, UniProt P31749); test: Kinase specificity panel: Akt/PKB; assay type: biochemical; settings: Table 2
[3] = tested on: CaMKII; assay type: biochemical; settings: Table 2
[4] = biological target: ERK2 (Homo sapiens, UniProt P28482); test: Kinase specificity panel: ERK2; assay type: biochemical; settings: Table 2
[5] = biological target: T1, PKC (Homo sapiens, UniProt P17252); test: PKC kinase assay (Histone 3 phosphorylation); assay type: biochemical; settings: Table 2
T1 construct: 6xHis (C); made in house; host or cells: Sf9 insect cells (baculovirus)
Experimental: PKCα kinase activity may be measured by the incorporation of radio-labeled phosphate in Histone 3, as described. The reaction mixture (total volume 65 μl) consist of 50 mM Tris-HCl, 1 mM Calcium acetate, 3 mM DTT, 0.03 mg/ml Phosphatidylserine, 2.4 μg/ml PMA, 0.04% NP40, 12 mM Mg/Cl, purified PKCα-100 ng, Histone 3, 0.2 mg/ml, 100 μM ATP, 0.2 μCi [γ-^32P]-ATP. The reaction is carried over 15 min at 37° C. in microplate shaker and is stopped by adding 10 μl 75 mM orthophosphoric acid and placing the plate on ice. 50 μl of the reaction mixture is transferred onto P81 filterplate and after washing off the free radioactive phosphate (3 times with 200 μl 75 mM orthophosphoric acid per well) 50 μl of scintillation liquid (Microscint 40) were added to each well and the radioactivity is measured on Scintillation counter (Topcount, HP).

[6] = biological target: SAPK2a (Homo sapiens, UniProt Q16539); test: Kinase specificity panel: SAPK2a; assay type: biochemical; settings: Table 2
[7] = biological target: CDK1/Cyclin B (Homo sapiens, UniProt P06493); test: CDK1/cyclin B kinase assay (GST-Rb phosphorylation);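 note: Enzyme: His-tagged CDK1/Cyclin B co-expressed in baculovirus-infected Sf9 insect cells, purified via metal-chelate chromatography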
Experimental: His-tagged CDK2/Cyclin E and CDK1/Cyclin B may be co-expressed and PKCα singularly expressed in Sf 9 insect cells infected with the appropriate baculovirus constructs. The cells are harvested two days after infection by low speed centrifugation and the proteins purified from the insect cell pellets by Metal-chelate chromatography. Briefly, the insect cell pellet is lysed in Buffer A (10 mM Tris-HCl, pH 8.0, 150 mM NaCl, 0.02% NP40 and 5 mM β-marcaptoethanol, 1 mM NaF. 1 mM Na3VO4 and Protease Inhibitors Coctail (Sigma) containing AEBSF, pepstatin A, E 64, bestatin, leupeptin) by sonication. The soluble fraction is cleared by centrifugation and loaded onto Ni-NTA-Agarose (Quiagen). Non bound proteins were washed off with 300 mM NaCl, 5-15 mM Imidazole in Buffer A and the bound proteins eluted with 250 mM Imidazole in Buffer A. The purified proteins are extensively dialyzed against Storage buffer (20 mM HEPES pH 7.4, 50 mM NaCl, 2 mM DTT, 1 mM EDTA, 1 mM EGTA, 0.02% NP40, 10% v/v Glycerol) aliquoted and stored at −70° C.

[8] = biological target: T2, CDK2/Cyclin E (Homo sapiens, UniProt P24941); test: CDK2/cyclin E kinase assay (GST-Rb phosphorylation); assay type: biochemical; settings: read-out: Average IC50 CDK2 cyclin E1;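 note: enzyme source: His-tagged CDK2/cyclin E complex co-expressed recombinantly in Sf9 insect cells using baculovirus constructs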
T2 construct: His; made in house; host or cells: Sf9 insect cells (baculovirus)

[9] = biological target: CDK4/Cyclin D1 (Homo sapiens, UniProt P11802); test: CDK4/cyclin D1 kinase assay (GST-Rb phosphorylation); assay type: biochemical; settings: read-out: Average IC50 CDK4 cyclin D1
[10] = biological target: CDK9/cyclin T1 (Homo sapiens, UniProt P50750); test: CDK9 assay (CTD peptide substrate); assay type: biochemical; settings: read-out: Average IC50 CDK9 cyclin T1
Method in brief: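 Recombinant human CDK7/cyclin H or CDK9/cyclin T1 with biotinylated CTD peptide, 45 min at 30 °C, pH 7.2 MOPS buffer, 15 mM MgCl2, 100 μM ATP with trace [γ-32P]ATP. Avidin capture on P81 filters, phosphoric acid washes, 32P incorporation by scintillation counting.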

[11] = tested on: HIV-1RoJo/PBMC; test: Anti-HIV efficacy in fresh human PBMCs, strain RoJo; assay type: cell-based; settings: HIV-1RoJo/PBMC; for IC50: Human immunodeficiency virus 1, read-out: IC50 (concentration inhibiting virus replication by 50%); for IC90: Human immunodeficiency virus 1, read-out: IC90 (concentration inhibiting virus replication by 90%)
Experimental: (§1) Fresh PBMCs, seronegative for HIV and HBV, were isolated from screened donors (Interstate Blood Bank, Inc. Memphis, Tenn.). Cells were pelleted/washed 2-3 times by low speed centrifugation and re-suspension in PBS to remove contaminating platelets. […] Banded PBMCs were gently aspirated from the resulting interface and subsequently washed with PBS by low speed centrifugation. […] The cells were allowed to incubate at 37° C. […] IL-2 is included in the culture medium to maintain the cell division initiated by the PHA mitogenic stimulation. PBMCs were maintained in this with bi-weekly medium changes until used in the assay protocol. Cells were kept in culture for a maximum of two weeks before being deemed too old for use in assays and discarded. Monocytes were depleted from the culture as the result of adherence to the tissue culture flask.
(§2) Tritiated thymidine triphosphate (^3H-TTP, 80 Ci/mmol, NEN) was received in 1:1 dH2O:Ethanol at 1 mCi/mL. Poly rA:oligo dT template:primer (Pharmacia) was prepared as a stock solution, followed by aliquoting and storage at −20° C. The RT reaction buffer was prepared fresh on a daily basis. The final reaction mixture was prepared by combining ^3H-TTP, dH2O, poly rA:oligo dT stock and reaction buffer. This reaction mixture was placed in a round bottom microtiter plate and supernatant containing virus was added and mixed. The plate was incubated at 37° C. for 60 minutes. Following incubation, the reaction volume was spotted onto DE81 filter-mats (Wallac), in a sodium phosphate buffer or 2×SSC (Life Technologies). Next they were washed in distilled water, in 70% ethanol, and then dried. Incorporated radioactivity (counts per minute, CPM) was quantified using standard liquid scintillation techniques.

[12] = tested on: HIV-1; test: Anti-viral cell-based assays; settings: result in words
[13] = Compound cytotoxicity in PBMC assay plates (MTS cell viability); settings: human, TC50 (concentration decreasing cell viability by 50%)
[14] = biological target: CDK2/cyclin A (Homo sapiens, UniProt P24941); test: CDK2/cyclin A kinase assay; assay type: biochemical; settings: Table 3; read-out: Average IC50 CDK2 cyclin A2;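 note: Read-out is incorporated radioactivity retained on P81 filter plates and quantified by scintillation counting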
Experimental: Reactions were stopped on ice, followed by filtration through p81 filterplates (Whatman Polyfiltronics, Kent, UK). After washing 3 times with 75 mM orthophosphoric acid, plates were dried, scintillant added and incorporated radioactivity measured in a scintillation counter (TopCount, Packard Instruments, Pangboume, Berks, UK).

[15] = tested on: HIV-1WeJo/PBMC; test: Anti-HIV efficacy in fresh human PBMCs, strain WeJo; assay type: cell-based; settings: HIV-1WeJo/PBMC
Experimental: as §1, §2

SAPK2a, sequence (Q16539 whole entry, species assumed): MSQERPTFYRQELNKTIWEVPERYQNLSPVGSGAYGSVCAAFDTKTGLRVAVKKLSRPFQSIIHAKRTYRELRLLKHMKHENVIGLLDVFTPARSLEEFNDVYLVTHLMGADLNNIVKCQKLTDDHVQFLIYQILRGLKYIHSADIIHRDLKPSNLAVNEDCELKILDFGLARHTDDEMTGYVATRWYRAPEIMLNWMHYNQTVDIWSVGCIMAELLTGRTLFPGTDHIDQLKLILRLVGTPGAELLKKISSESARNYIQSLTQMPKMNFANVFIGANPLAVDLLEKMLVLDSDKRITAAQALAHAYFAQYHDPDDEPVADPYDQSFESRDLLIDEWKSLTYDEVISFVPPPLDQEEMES
CDK9/cyclin T1, sequence (P50750 whole entry): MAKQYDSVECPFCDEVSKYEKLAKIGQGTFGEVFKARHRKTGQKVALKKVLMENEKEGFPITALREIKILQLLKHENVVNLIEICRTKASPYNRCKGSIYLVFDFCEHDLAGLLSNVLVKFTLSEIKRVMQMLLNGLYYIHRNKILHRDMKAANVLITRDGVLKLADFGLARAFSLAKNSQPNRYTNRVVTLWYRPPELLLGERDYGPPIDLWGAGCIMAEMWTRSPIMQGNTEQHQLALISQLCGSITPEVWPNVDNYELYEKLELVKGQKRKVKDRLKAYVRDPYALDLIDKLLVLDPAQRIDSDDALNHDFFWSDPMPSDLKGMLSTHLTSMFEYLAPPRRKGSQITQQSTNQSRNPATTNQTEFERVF
CDK9/cyclin T1, sequence (O60563 whole entry partner): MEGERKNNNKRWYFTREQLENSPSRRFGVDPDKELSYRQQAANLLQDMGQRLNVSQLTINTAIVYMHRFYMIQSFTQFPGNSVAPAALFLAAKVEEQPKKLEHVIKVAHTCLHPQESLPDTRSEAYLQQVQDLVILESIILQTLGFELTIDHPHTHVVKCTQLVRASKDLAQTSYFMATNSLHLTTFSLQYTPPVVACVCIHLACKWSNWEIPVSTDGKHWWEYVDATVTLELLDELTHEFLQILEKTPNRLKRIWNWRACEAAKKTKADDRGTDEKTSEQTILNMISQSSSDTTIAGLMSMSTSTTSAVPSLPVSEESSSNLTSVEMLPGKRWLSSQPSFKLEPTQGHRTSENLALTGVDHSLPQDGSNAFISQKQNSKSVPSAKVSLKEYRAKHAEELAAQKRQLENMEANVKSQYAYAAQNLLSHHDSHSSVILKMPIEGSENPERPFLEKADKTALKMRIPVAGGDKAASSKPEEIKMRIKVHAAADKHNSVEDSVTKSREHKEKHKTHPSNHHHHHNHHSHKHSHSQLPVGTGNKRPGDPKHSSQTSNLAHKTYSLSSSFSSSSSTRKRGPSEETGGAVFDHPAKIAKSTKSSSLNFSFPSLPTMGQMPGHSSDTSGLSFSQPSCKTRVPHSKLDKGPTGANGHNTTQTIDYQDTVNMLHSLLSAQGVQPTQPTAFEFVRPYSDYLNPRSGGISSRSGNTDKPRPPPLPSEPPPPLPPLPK
CDK7/cyclin H, sequence (P50613 whole entry): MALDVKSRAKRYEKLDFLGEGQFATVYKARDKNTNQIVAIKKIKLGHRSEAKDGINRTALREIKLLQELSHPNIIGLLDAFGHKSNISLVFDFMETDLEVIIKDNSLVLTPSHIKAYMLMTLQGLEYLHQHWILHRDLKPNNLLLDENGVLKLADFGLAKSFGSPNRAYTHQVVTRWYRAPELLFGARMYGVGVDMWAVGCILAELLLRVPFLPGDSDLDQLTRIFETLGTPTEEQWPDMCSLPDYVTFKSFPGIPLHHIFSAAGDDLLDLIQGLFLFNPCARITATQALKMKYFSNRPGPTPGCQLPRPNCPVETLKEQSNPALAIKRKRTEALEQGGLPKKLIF
CDK7/cyclin H, sequence (P51946 whole entry partner): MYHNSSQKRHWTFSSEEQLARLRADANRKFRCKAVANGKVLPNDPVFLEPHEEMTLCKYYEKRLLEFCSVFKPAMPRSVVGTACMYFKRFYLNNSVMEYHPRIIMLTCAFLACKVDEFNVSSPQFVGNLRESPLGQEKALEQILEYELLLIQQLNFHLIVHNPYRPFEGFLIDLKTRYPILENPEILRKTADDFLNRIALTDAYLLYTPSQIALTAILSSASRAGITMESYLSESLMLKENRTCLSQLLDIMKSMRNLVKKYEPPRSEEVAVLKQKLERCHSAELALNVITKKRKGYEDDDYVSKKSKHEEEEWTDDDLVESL
CDK1/Cyclin B, sequence (P06493 whole entry, species assumed): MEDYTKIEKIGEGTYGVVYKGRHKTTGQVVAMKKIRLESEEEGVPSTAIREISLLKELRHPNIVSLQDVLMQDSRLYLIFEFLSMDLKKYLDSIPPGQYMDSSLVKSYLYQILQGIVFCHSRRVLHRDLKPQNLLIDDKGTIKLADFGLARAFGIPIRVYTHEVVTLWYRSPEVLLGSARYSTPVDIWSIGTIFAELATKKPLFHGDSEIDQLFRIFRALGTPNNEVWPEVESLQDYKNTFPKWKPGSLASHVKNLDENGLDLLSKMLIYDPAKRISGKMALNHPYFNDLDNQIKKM
CDK1/Cyclin B, sequence (P14635 whole entry partner, species assumed): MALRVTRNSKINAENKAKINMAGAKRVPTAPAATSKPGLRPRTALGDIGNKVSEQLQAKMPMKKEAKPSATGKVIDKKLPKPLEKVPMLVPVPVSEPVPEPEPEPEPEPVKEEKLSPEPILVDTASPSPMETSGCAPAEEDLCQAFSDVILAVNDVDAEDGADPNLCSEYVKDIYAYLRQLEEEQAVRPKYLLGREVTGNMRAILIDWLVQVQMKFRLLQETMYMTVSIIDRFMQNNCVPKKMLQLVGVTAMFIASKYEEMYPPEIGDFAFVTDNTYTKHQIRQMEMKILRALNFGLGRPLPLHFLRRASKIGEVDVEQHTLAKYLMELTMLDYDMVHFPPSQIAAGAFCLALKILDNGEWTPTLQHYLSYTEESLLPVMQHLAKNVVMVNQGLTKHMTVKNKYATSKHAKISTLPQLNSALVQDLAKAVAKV
ERK2, sequence (P28482 whole entry, species assumed): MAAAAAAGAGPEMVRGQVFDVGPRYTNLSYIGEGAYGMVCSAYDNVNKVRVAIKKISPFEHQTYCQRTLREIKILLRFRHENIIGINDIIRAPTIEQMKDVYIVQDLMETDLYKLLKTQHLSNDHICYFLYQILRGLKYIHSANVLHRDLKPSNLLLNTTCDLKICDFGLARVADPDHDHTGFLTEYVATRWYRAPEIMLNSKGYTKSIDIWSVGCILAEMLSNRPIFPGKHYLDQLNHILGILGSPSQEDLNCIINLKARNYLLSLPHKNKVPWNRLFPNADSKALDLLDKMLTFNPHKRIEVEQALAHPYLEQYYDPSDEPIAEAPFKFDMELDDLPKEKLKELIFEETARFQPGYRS
Akt/PKB, sequence (P31749 whole entry): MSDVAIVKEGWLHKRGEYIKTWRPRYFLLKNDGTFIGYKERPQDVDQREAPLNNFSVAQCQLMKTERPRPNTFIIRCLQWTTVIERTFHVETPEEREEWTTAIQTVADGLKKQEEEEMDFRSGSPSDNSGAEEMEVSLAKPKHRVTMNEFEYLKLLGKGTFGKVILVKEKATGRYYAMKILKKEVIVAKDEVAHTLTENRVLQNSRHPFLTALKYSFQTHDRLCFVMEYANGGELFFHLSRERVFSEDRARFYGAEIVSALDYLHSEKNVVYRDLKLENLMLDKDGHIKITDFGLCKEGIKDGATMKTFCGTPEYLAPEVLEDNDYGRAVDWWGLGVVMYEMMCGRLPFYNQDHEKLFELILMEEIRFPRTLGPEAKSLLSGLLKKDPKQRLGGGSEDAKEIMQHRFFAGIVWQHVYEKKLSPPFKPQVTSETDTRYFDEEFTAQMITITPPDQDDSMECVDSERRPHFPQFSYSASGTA

Row | SMILES | IC50 ([1]; Table 2) [µM] | IC50 [2] [µM] | IC50 [3] [µM] | IC50 [4] [µM] | IC50 [5] [µM] | IC50 [6] [µM] | IC50 [7] [µM] | IC50 ([8]; Table 2) [µM] | IC50 ([9]; Table 2) [µM] | IC50 ([1]; Table 3) [µM] | IC50 ([8]; Table 3) [µM] | IC50 ([10]; Table 3) [µM] | IC50 [11] [µM] | IC90 [11] [µM] | anti-viral effectiveness as demonstrated by cell-based assays [12] | CC50 at 7 days ([13]; HIV-1RoJo/PBMC) [µM] | IC50 [14] [µM] | also measured
1 | Cc1nc(C)c(-c2ccnc(Nc3cccc([N+](=O)[O-])c3)n2)s1 [Compound 5, [4-(2,4-Dimethyl-thiazol-5-yl)-pyrimidin-2-yl]-(3-nitro-phenyl)-amine] | 13 | > 50 | > 50 | 40 | 35 | 40 | 17 | – | – | – | – | – | – | – | – | – | – | –
2 | Cc1nc(C)c(-c2ccnc(Nc3ccc(F)cc3F)n2)s1 [Compound 9, (2,4-Difluoro-phenyl)-[4-(2,4-dimethyl-thiazol-5-yl)-pyrimidin-2-yl]-amine] | – | > 50 | > 50 | 55 | 40 | 40 | 38 | 6.3 | > 50 | – | – | – | – | – | – | – | – | IC50 ([9]; Table 3): > 50 µM
3 | Cc1nc(C)c(-c2ccnc(Nc3ccc(C(F)(F)F)cc3)n2)s1 [Compound 15, [4-(2,4-Dimethyl-thiazol-5-yl)-pyrimidin-2-yl]-(4-trifluoromethyl-phenyl)-amine] | > 100 | > 50 | > 50 | > 50 | > 50 | > 50 | 34 | – | – | > 100 | – | – | – | – | – | – | – | –
4 | COc1ccc(Nc2nccc(-c3sc(C)nc3C)n2)cc1 [Compound 26, [4-(2,4-Dimethyl-thiazol-5-yl)-pyrimidin-2-yl]-(4-methoxy-phenyl)-amine] | – | > 50 | > 50 | > 50 | > 50 | 45 | 9 | – | 2.4 | – | – | – | – | – | – | – | – | –
5 | Cc1nc(C)c(-c2ccnc(Nc3ccc(O)cc3)n2)s1 [Compound 28, 4-[4-(2,4-Dimethyl-thiazol-5-yl)-pyrimidin-2-ylamino]-phenol] | – | – | – | – | – | – | 1.8 | – | – | 2.4 | 0.28 | 0.46 | 0.28 | 21 | particularly effective anti-viral agents | 22 | – | IC50 ([9]; Table 3): 0.6 µM; TI (therapeutic index: TC50/IC50) [11]: 80
6 | Cc1nc(C)c(-c2ccnc(Nc3cccc(C#N)c3)n2)s1 [Compound 36, 3-[4-(2,4-Dimethyl-thiazol-5-yl)-pyrimidin-2-ylamino]-benzonitrile] | 1.7 | > 50 | > 50 | > 50 | > 50 | > 50 | 2.5 | 0.39 | 2.9 | – | 0.39 | – | – | – | – | – | 0.16 | IC50 ([10]; Table 2): 1 µM
7 | CNc1nc(C)c(-c2ccnc(Nc3cccc(O)c3)n2)s1 [Compound 70, 3-[4-(4-Methyl-2-methylamino-thiazol-5-yl)-pyrimidin-2-ylamino]-phenol] | – | – | – | – | – | – | – | – | – | 3.4 | 0.27 | 0.048 | 0.63 | 2.6 | particularly effective anti-viral agents | 2.7 | – | TI (therapeutic index: TC50/IC50) [11]: 4.3
8 | Cc1nc(N)sc1-c1ccnc(Nc2cccc(O)c2)n1 [Compound 116, 3-[4-(2-Amino-4-methyl-thiazol-5-yl)-pyrimidin-2-ylamino]-phenol] | 0.99 | 53 | 7.7 | 15 | 33 | 29 | 0.58 | 0.11 | 0.46 | – | – | – | – | – | – | – | 0.18 | IC50 ([10]; Table 2): 0.13 µM
9 | Cc1nc(N)sc1-c1ccnc(Nc2ccc(I)c([N+](=O)[O-])c2)n1 [Compound 117, [4-(2-Amino-4-methyl-thiazol-5-yl)-pyrimidin-2-yl]-(4-iodo-3-nitro-phenyl)-amine] | 0.36 | 70 | > 100 | > 100 | > 100 | > 100 | 1.7 | 0.28 | 1.4 | – | – | – | – | – | – | – | 1.7 | IC50 ([10]; Table 2): 0.055 µM
10 | COc1ccc(Nc2nccc(-c3sc(C)nc3C)n2)cc1OC [Compound 125, (3,4-Dimethoxy-phenyl)-[4-(2,4-dimethyl-thiazol-5-yl)-pyrimidin-2-yl]-amine] | – | – | – | – | – | – | 0.25 | – | – | 5.9 | 0.033 | 0.59 | 0.82 | 0.97 | particularly effective anti-viral agents | 27 | 0.26 | IC50 ([9]; Table 3): 1.1 µM; TI (therapeutic index: TC50/IC50) [11]: 33
11 | Cc1nc(C)c(-c2ccnc(Nc3ccc(N(C)C)c(Cl)c3)n2)s1 [Compound 128, 2-Chloro-N^4-[4-(2,4-dimethyl-thiazol-5-yl)-pyrimidin-2-yl]-N^1,N^1-dimethyl-benzene-1,4-diamine] | – | – | – | – | – | – | – | – | – | 6.3 | – | 0.45 | 0.74 | 2.7 | particularly effective anti-viral agents | 4.3 | – | IC50 ([15]; Human immunodeficiency virus 1, read-out: IC50 (concentration inhibiting virus replication by 50%)): 0.86 µM; IC90 ([15]; Human immunodeficiency virus 1, read-out: IC90 (concentration inhibiting virus replication by 90%)): 2 µM; CC50 at 7 days ([13]; HIV-1WeJo/PBMC): > 100 µM
